Source: the supplement of paper PMC10307832

What was measured:
Experiment in all cases: relative viability (nuclei count vs DMSO), 5 days (fraction); higher = more cells survive
AZD6482 + OSI-027 = compound: Cc1cc([C@@H](C)Nc2ccccc2C(=O)O)c2nc(N3CCOCC3)cc(=O)n2c1 [AZD6482] + COc1cccc2cc(-c3nc([C@H]4CC[C@H](C(=O)O)CC4)n4ncnc(N)c34)[nH]c12 [OSI-027] (partner 0.5 µM)
Summary of the method: (§1)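 Relative viability divides the nuclei count in treated wells by that in vehicle wells. Lung cancer cell lines were seeded in 1536-well plates, dosed by pin tool the next day, and fixed and stained after 5 days in one step with final 0.05% Triton X-100, 1% formaldehyde and 1 ug/ml Hoechst. Dosing was a single drug or a fixed anchor-drug dose plus five library-drug doses (not always all listed) in √10 steps, and values are medians of duplicate plates imaged at 4×.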

[1] = compound: COc1cc2nc(N3CCCN(C)CC3)nc(NC3CCN(Cc4ccccc4)CC3)c2cc1OC + CS(=O)(=O)N1CCN(Cc2cc3nc(-c4cccc5[nH]ncc45)nc(N4CCOCC4)c3s2)CC1 [Pictilisib] (partner 1 µM)
Summary of the method: as §1

AZD6482 + AZD7762 = compound: Cc1cc([C@@H](C)Nc2ccccc2C(=O)O)c2nc(N3CCOCC3)cc(=O)n2c1 [AZD6482] + NC(=O)Nc1cc(-c2cccc(F)c2)sc1C(=O)N[C@H]1CCCNC1 [AZD7762] (partner 0.2 µM)
Summary of the method: as §1

[2] = compound: COc1cc2nc(N3CCCN(C)CC3)nc(NC3CCN(Cc4ccccc4)CC3)c2cc1OC + CCNC(=O)c1noc(-c2cc(C(C)C)c(O)cc2O)c1-c1ccc(CN2CCOCC2)cc1 [Luminespib] (partner 0.01 µM)
Summary of the method: as §1

Cell Line | relative viability (AZD6482 + OSI-027; first compound 0.08 µM) | relative viability (AZD6482 + OSI-027; first compound 0.253 µM) | relative viability (AZD6482 + OSI-027; first compound 0.8 µM) | relative viability (AZD6482 + OSI-027; first compound 2.53 µM) | relative viability (AZD6482 + OSI-027; first compound 8 µM) | relative viability ([1]; first compound 0.2 µM) | relative viability ([1]; first compound 0.6325 µM) | relative viability ([1]; first compound 2 µM) | relative viability ([1]; first compound 6.325 µM) | relative viability (AZD6482 + AZD7762; first compound 0.08 µM) | relative viability (AZD6482 + AZD7762; first compound 0.253 µM) | relative viability (AZD6482 + AZD7762; first compound 0.8 µM) | relative viability (AZD6482 + AZD7762; first compound 2.53 µM) | relative viability (AZD6482 + AZD7762; first compound 8 µM) | relative viability ([2]; first compound 0.2 µM) | relative viability ([2]; first compound 0.6325 µM) | relative viability ([2]; first compound 2 µM) | relative viability ([2]; first compound 6.325 µM)
HOP-62 | 0.817 | 0.883 | 0.774 | 0.553 | 0.765 | 0.586 | 0.688 | 0.555 | 0.496 | 0.577 | 0.626 | 0.706 | 0.526 | 0.761 | 0.907 | 0.856 | 0.817 | 0.952
IA-LM | – | – | – | – | – | 0.342 | 0.389 | 0.419 | 0.322 | – | – | – | – | – | – | – | – | –
LC-2-ad | 0.734 | 0.757 | 0.807 | 0.581 | 0.565 | 0.481 | 0.467 | 0.534 | 0.473 | 0.842 | 0.774 | 0.821 | 0.662 | 0.593 | 0.961 | 0.973 | 1.21 | 1.06
LCLC-97TM1 | 0.482 | 0.399 | 0.384 | 0.255 | 0.312 | 0.186 | – | 0.149 | 0.139 | 0.344 | 0.157 | 0.442 | – | 0.299 | 0.79 | 0.73 | 0.822 | 0.777
LCLC-103H | 0.414 | 0.452 | 0.492 | 0.273 | 0.31 | 0.635 | 0.666 | 0.656 | 0.585 | 0.626 | 0.721 | 0.619 | 0.579 | 0.562 | 0.905 | 1.08 | 0.976 | 1.01
LK-2 | 0.222 | 0.2 | 0.177 | 0.196 | 0.177 | 0.621 | 0.565 | 0.669 | 0.632 | 0.386 | 0.362 | 0.434 | 0.239 | 0.271 | 0.188 | 0.188 | 0.164 | 0.186
LOU-NH91 | 0.606 | 0.702 | 0.66 | 0.455 | 0.579 | 0.546 | 0.585 | 0.505 | 0.566 | 0.695 | 0.69 | 0.704 | 0.519 | 0.543 | 0.383 | 0.295 | 0.359 | 0.367
NCI-H520 | 0.214 | 0.176 | 0.211 | 0.178 | 0.178 | 0.292 | 0.329 | 0.332 | 0.21 | – | – | – | – | – | 0.321 | 0.227 | 0.27 | 0.214
NCI-H522 | 0.599 | 0.784 | 0.635 | 0.688 | 0.54 | – | – | – | – | 0.764 | 0.73 | 0.803 | 0.762 | 0.664 | 1.03 | 1.23 | 1.32 | 1.12
NCI-H661 | 0.651 | 0.722 | 0.649 | 0.4 | 0.435 | 0.338 | 0.406 | 0.428 | 0.466 | – | – | – | – | – | 0.903 | 0.894 | 0.911 | 0.957
NCI-H1299 | – | – | – | – | – | 0.734 | 0.777 | 1.05 | 0.649 | – | – | – | – | – | – | – | – | –
